Results as given in patent US10047075B2, “Pyridines and pyrimidines and use thereof” (Purdue Pharma L.P., priority 2014, dated 2018).
Where two headings read alike, the source gives them in different places.

Molecular target: human Nav1.7 (Homo sapiens, UniProt Q15858)
Assay: FLIPR or FLIPR TETRA sodium dye assay with KCl and test article pre-incubation (CoroNa Green, veratridine + scorpion venom)
Type: cell-based
[1] = recombinant human Nav1.7 in HEK293 cells

human Nav1.7, sequence (Q15858 1-1977 isoform Q15858-3): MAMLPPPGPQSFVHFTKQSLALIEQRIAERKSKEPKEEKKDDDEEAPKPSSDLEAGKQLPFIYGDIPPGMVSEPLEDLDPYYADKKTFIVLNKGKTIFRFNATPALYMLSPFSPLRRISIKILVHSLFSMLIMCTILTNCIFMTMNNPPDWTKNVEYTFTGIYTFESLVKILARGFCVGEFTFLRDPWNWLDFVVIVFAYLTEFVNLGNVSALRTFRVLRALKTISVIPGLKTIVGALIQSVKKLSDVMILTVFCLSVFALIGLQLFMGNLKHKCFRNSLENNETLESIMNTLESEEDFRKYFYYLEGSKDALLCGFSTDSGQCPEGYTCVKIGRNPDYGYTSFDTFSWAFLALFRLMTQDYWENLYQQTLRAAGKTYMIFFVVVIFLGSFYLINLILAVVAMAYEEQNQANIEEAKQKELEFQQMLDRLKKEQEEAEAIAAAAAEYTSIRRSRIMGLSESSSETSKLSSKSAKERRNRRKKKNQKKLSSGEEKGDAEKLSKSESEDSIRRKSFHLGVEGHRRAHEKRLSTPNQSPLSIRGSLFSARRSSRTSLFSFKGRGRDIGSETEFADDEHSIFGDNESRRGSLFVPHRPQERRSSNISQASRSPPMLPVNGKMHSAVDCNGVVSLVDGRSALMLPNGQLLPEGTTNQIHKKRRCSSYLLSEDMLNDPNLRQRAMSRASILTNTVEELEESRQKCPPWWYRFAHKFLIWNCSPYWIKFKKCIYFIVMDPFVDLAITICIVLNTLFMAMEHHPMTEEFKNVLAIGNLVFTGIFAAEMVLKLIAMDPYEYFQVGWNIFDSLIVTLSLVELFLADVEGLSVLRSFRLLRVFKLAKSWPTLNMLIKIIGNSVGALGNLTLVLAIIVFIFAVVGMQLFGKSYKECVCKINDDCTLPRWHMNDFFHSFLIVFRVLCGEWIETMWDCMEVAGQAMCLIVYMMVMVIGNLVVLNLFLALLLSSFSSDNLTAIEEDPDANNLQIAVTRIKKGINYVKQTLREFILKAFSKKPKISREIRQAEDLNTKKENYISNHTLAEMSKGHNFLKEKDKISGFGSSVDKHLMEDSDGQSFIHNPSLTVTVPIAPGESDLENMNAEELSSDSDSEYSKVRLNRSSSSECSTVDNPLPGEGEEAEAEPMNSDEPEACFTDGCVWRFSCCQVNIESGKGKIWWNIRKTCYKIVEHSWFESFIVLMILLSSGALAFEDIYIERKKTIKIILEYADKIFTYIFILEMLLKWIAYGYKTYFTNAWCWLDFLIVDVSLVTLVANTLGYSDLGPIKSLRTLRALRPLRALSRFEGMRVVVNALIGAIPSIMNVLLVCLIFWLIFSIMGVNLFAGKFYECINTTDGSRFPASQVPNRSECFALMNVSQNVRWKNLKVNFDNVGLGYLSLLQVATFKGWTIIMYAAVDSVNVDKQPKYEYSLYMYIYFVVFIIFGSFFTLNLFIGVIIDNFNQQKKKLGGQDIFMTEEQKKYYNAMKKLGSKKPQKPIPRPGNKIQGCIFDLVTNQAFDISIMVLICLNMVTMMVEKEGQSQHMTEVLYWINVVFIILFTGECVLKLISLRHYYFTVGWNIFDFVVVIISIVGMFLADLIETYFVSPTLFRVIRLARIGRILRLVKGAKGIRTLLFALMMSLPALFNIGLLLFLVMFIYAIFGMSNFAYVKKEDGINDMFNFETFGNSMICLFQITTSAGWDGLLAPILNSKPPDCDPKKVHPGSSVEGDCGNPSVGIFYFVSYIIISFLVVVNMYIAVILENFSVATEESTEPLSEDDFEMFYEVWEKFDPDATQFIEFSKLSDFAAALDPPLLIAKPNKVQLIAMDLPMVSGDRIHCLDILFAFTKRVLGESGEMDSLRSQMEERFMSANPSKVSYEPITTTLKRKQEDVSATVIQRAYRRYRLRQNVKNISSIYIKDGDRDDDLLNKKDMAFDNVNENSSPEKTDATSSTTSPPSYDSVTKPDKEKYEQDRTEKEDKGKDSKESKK

| SMILES | IC50 [1] [µM] | IC50 [µM] |
| --- | --- | --- |
| CCN(CC)C(=O)N1CCN(c2ccc(C(F)(F)F)cc2)c2ccc(-c3cccc(C(N)=O)n3)cc2C1 [Compound 92, 7-(6-carbamoylpyridin-2-yl)-N,N-diethyl-1-(4-(trifluoromethyl)phenyl)-1,2,3,5-tetrahydro-4H-benzo[e][1,4]diazepino-4-carboxamide] | 0.813 ± 0.057 |  |
| NC(=O)c1cccc(-c2ccc3c(c2)CN(C(=O)C2CC2)CCN3c2ccc(C(F)(F)F)cc2)n1 [Compound 93, 6-(4-(cyclopropanecarbonyl)-1-(4-(trifluoromethyl)phenyl)-2,3,4,5-tetrahydro-1H-benzo[e][1,4]diazepin-7-yl)picolinamide] | > 20 |  |
| CC(=O)N1CCN(C2CCCCC2)c2ccc(-c3cccc([C@H](O)CO)n3)cc2C1 [Compound 94, (S)-1-(1-cyclohexyl-7-(6-(1,2-dihydroxyethyl)pyridin-2-yl)-1,2,3,5-tetrahydro-4H-benzo[e][1,4]diazepin-4-yl)ethan-1-one] | 8.8 ± 1.92 |  |
| CS(=O)(=O)N1CCN(c2ccc(C(F)(F)F)cc2)c2ccc(-c3cccc([C@H](O)CO)n3)cc2C1 [Compound 95, (S)-1-(6-(4-(methylsulfonyl)-1-(4-(trifluoromethyl)phenyl)-2,3,4,5-tetrahydro-1H-benzo[e][1,4]diazepin-7-yl)pyridin-2-yl)ethane-1,2-diol] |  | 0.469 ± 0.017 |
| CCNC(=O)N1CCN(c2ccc(C(F)(F)F)cc2)c2ccc(-c3cccc([C@H](O)CO)n3)cc2C1 [Compound 97, (S)-7-(6-(1,2-dihydroxyethyl)pyridin-2-yl)-N-ethyl-1-(4-(trifluoromethyl)phenyl)-1,2,3,5-tetrahydro-4H-benzo[e][1,4]diazepin-4-carboxamide] | 2.62 ± 0.1 |  |
| CN(C)CC(=O)N1CCN(c2ccc(C(F)(F)F)cc2)c2ccc(-c3cccc([C@H](O)CO)n3)cc2C1 [Compound 100, (S)-1-(7-(6-(1,2-dihydroxyethyl)pyridin-2-yl)-1-(4-(trifluoromethyl)phenyl)-1,2,3,5-tetrahydro-4H-benzo[e][1,4]diazepin-4-yl)-2-(dimethylamino)ethan-1-one] | 7.07 ± 1.45 |  |
| N#CCN1CCN(c2ccc(C(F)(F)F)cc2)c2ccc(-c3cccc(C(N)=O)n3)cc2C1 [Compound 102, 6-(4-(cyanomethyl)-1-(4-(trifluoromethyl)phenyl)-2,3,4,5-tetrahydro-1H-benzo[e][1,4]diazepin-7-yl)picolinamide] | 0.857 ± 0.075 |  |
| NC(=O)CN1CCN(C2CCCCC2)c2ccc(-c3cccc([C@H](O)CO)n3)cc2C1 [Compound 104, (S)-2-(1-cyclohexyl-7-(6-(1,2-dihydroxyethyl)pyridin-2-yl)-1,2,3,5-tetrahydro-4H-benzo[e][1,4]diazepin-4-yl)acetamide] | 2.61 ± 0.047 |  |
| CNC(=O)CN1CCN(c2ccc(C(F)(F)F)cc2)c2ccc(-c3cccc([C@H](O)CO)n3)cc2C1 [Compound 105, (S)-2-(7-(6-(1,2-dihydroxyethyl)pyridin-2-yl)-1-(4-(trifluoromethyl)phenyl)-1,2,3,5-tetrahydro-4H-benzo[e][1,4]diazepin-4-yl)-N-methylacetamide] | 0.644 ± 0.025 |  |
| N#CCN1CCN(c2ccc(C(F)(F)F)cc2)c2ccc(-c3cccc([C@H](O)CO)n3)cc2C1 [Compound 106, (S)-2-(7-(6-(1,2-dihydroxyethyl)pyridin-2-yl)-1-(4-(trifluoromethyl)phenyl)-1,2,3,5-tetrahydro-4H-benzo[e][1,4]diazepin-4-yl)acetonitrile] | 0.581 ± 0.038 |  |
| OC[C@@H](O)c1cccc(-c2ccc3c(c2)CN(Cc2ncc[nH]2)CCN3c2ccc(C(F)(F)F)cc2)n1 [Compound 107, (S)-1-(6-(4-((1H-imidazol-2-yl)methyl)-1-(4-(trifluoromethyl)phenyl)-2,3,4,5-tetrahydro-1H-benzo[e][1,4]diazepin-7-yl)pyridin-2-yl)ethane-1,2-diol] | 0.669 ± 0.053 |  |
| NC(=O)c1cccc(-c2ccc3c(c2)CN(CC(O)CO)CCN3c2ccc(C(F)(F)F)cc2)n1 (stereo not drawn) [Compound 109, 6-(4-(2,3-dihydroxypropyl)-1-(4-(trifluoromethyl)phenyl)-2,3,4,5-tetrahydro-1H-benzo[e][1,4]diazepin-7-yl)picolinamide] | 5.7 ± 0.663 |  |
| C[C@H](Nc1cc(C(N)=O)nc(-c2ccc3c(c2)OCCC3Cc2ccc(F)cc2)n1)C(N)=O (stereo partly drawn) [Compound 112, 6-(((S)-1-amino-1-oxopropan-2-yl)amino)-2-(4-(4-fluorobenzyl)chroman-7-yl)pyrimidine-4-carboxamide] | 5.32 ± 0.425 |  |
| NC(=O)c1cc([C@H](O)CO)cc(-c2ccc3c(c2)CN(CC2CC2)CCN3c2ccc(C(F)(F)F)cc2)n1 [Compound 122, (S)-6-(4-(cyclopropylmethyl)-1-(4-(trifluoromethyl)phenyl)-2,3,4,5-tetrahydro-1H-benzo[e][1,4]diazepin-7-yl)-4-(1,2-dihydroxyethyl)-picolinamide] | 7.21 ± 0.341 |  |
| NC(=O)c1cc(-c2ccc3c(c2)CN(CC2CC2)CCN3c2ccc(C(F)(F)F)cc2)cc([C@H](O)CO)n1 [Compound 123, (S)-4-(4-(cyclopropylmethyl)-1-(4-(trifluoromethyl)phenyl)-2,3,4,5-tetrahydro-1H-benzo[e][1,4]diazepin-7-yl)-6-(1,2-dihydroxyethyl)-picolinamide] | 9.61 ± 0.339 |  |
